Laboratory results reported in US7572793B2, “3-Substituted-4-pyrimidone derivatives” (Mitsubishi Tanabe Pharma Corporation, priority 2001, dated 2009).

Molecular target: T1, bovine cerebral TPK1 (Bos taurus, UniProt A0A3Q1MT31)
T1 construct: from tissue; host or cells: bovine brain (cerebrum)
Test: Inhibitory activity against P-GS1 phosphorylation by bovine cerebral TPK1
Type: biochemical
Details: 41.7 μM [γ-32P]ATP, 25° C., 2 hours, pH 6.5
Protocol: Inhibitory Activity of the Medicament of the Present Invention Against P-GS1 Phosphorylation by Bovine Cerebral TPK1
A mixture containing 100 mM MES-sodium hydroxide (pH 6.5), 1 mM magnesium acetate, 0.5 mM EGTA, 5 mM β-mercaptoethanol, 0.02% Tween 20, 10% glycerol, 12 μg/ml P-GS1, 41.7 μM [y-^32P] ATP (68 kBq/ml), bovine cerebral TPK1 and a compound shown in Table (a final mixture contained 1.7% DMSO deriving from a solution of a test compound prepared in the presence of 10% DMSO) was used as a reaction system. The phosphorylation was started by adding ATP, and the reaction was conducted at 25° C. for 2 hours, and then stopped by adding 21% perchloric acid on ice cooling. The reaction mixture was centrifuged at 12,000 rpm for 5 minutes and adsorbed on P81 paper (Whatmann), and then the paper was washed four times with 75 mM phosphoric acid, three times with water and once with acetone. The paper was dried, and the residual radioactivity was measured using a liquid scintillation counter. […] PHF formation, and that the medicaments of the present invention are effective for preventive and/or therapeutic treatment of Alzheimer disease and the above-mentioned diseases.

T1 sequence (A0A3Q1MT31 1-419): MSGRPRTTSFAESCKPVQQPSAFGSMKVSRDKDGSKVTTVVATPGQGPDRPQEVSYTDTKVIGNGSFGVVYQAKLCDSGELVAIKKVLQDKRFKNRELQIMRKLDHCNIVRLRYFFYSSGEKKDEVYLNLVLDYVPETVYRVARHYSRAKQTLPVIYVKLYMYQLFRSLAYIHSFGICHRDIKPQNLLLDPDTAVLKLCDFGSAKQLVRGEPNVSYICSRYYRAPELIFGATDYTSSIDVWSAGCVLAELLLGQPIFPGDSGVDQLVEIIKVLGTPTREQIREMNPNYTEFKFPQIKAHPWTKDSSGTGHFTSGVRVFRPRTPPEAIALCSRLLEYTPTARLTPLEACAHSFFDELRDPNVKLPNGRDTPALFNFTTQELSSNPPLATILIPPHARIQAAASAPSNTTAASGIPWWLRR

| Structure (SMILES) | IC50 [nM] |
| --- | --- |
| Cn1c(N2CCOC(C(=O)c3ccccc3)C2)nc(-c2ccncn2)cc1=O (centres unmarked) [Compound C501] | 0.56 |
| Cn1c(N2CCC(C(=O)c3ccc(Cl)cc3)CC2)nc(-c2ccncn2)cc1=O [Compound D034, 2-[4-(4-Chlorobenzoyl)piperidin-1-yl]-3-methyl-6-pyrimidin-4-yl-3H-pyrimidin-4-one] | 1.1 |
